How the values were obtained:
Format in all cases: cell-based
[1] = test system: human T-cell Jurkat cell line; experiment: Cellular cytotoxicity by LDH release; conditions: human T-cell Jurkat cells
Experimental: (§1) Where indicated the THP-1 cells were differentiated to plastic-adherent macrophage-like cells by treatment with phorbol 12-myristate 13-acetate (PMA; Sigma-Aldrich Canada, Oakville ON) as taught by Mookherjee et al. (2006). A rabbit synoviocyte cell line HIG-82 (ATCC® CRL-1832) was cultured in Ham's F-12 growth medium containing glutamine supplemented with sodium pyruvate (referred to as complete F-12 media henceforth), containing 10% (v/v) FBS in a humidified incubator at 37° C. and 5% CO2. Confluent HIG-82 cells were trypsinized with 1:3 dilution of 0.5% trypsin-EDTA in Hanks' balanced salt solution. Cellular cytotoxicity was evaluated after AHA labeling and upon stimulation with the various cytokines for all the cell types used in this study by monitoring the release of lactate dehydrogenase (LDH) employing a colorimetric detection kit (Roche Diagnostics, Laval, QC, Canada). Recombinant human cytokines TNF-α and IL-1β were obtained from eBioscience, Inc (San Diego, Calif., USA).

[2] = test system: rabbit synovial fibroblast HIG-82 cell line; experiment: Cellular cytotoxicity by LDH release; conditions: HIG-82 synovial fibroblast cell line, within 4 hr
Experimental: as §1

[3] = test system: human monocytic THP-1 cells; experiment: Cellular cytotoxicity by LDH release
Experimental: Human monocytic THP-1 (ATCC® TIB-202; ATCC is a registered trademark of the American Type Culture Collection, Manassas, Va., USA) cells were cultured in RPMI-1640 media containing 2 mM L-glutamine and 1 mM sodium pyruvate (referred to as complete RPMI media from here on), supplemented with 10% (v/v) FBS, and maintained in a humidified incubator at 37° C. and 5% CO2. […] Cellular cytotoxicity was evaluated after 24 hr stimulation with the various stimulants used in this study by monitoring the release of lactate dehydrogenase (LDH) employing a colorimetric detection kit (Roche Diagnostics, Laval, QC, Canada) Human monocytic THP-1 (ATCC® TIB-202) cells and Jurkat T-cell line (ATCC® TIB-152) were cultured in RPMI-1640 media containing 2 mM L-glutamine and 1 mM sodium pyruvate, supplemented with 10% (v/v) FBS, and maintained in a humidified incubator at 37° C. and 5% CO2. […] Cellular cytotoxicity was evaluated after AHA labeling and upon stimulation with the various cytokines for all the cell types used in this study by monitoring the release of lactate dehydrogenase (LDH) employing a colorimetric detection kit (Roche Diagnostics, Laval, QC, Canada).

[4] = test system: human monocytic THP-1 cells; experiment: AHA labeling, affinity purification and iTRAQ quantitative proteomics of nascent proteins; conditions: AHA-labeled THP-1 cells, cytokine 10 ng/ml, 4 hr, vs un-stimulated cells
Experimental: (§2) AHA labeling, biotin tagging of nascent proteins, and affinity purification: Cells were washed with warm D-PBS, and cultured in methionine-free, serum-free RPMI media at 37° C. 5% CO2 for 60 min. […] TC supernatants were monitored for the production of IL-8 by ELISA. Metabolic labeling of the cells with AHA reagent in the presence of the cytokine stimulants would result in induced nascent proteins with azide-bearing functional group, thus making them distinct from pool of pre-existing cellular proteins. Also these functional groups were further used to tag the nascent proteins with a biotin-alkyne reagent as follows. The cells were washed with D-PBS, followed by preparing cell lysates in lysis buffer containing 50 mM Tris-HCl, 1% SDS, 250 U/ml of benzonase nuclease and protease and phosphatase inhibitor cocktails (Sigma-Aldrich Canada Inc.). Total protein was estimated in the cell lysates using micro BCA analysis. Equivalent amount of total protein from each sample was acetone precipitated and then treated with Click-iT® Biotin-alkyne reagent (Invitrogen Canada Inc.) per the manufacturer's instructions. The biotin-alkyne reagent thus covalently coupled to the reactive azide group of the AHA-modified proteins was used to subsequently enrich the nascent proteins by affinity purification using Ultralink® Immobilized NeutrAvidin® resin (Ultralink and NeutrAvidin are registered trademarks of Pierce Biotechnology Inc, Rockford, Ill., USA), and the bound proteins were eluted using 6 M guanidinium hydrochloride.
Quantitative proteomics employing isobaric tag for relative and absolute quantitation (iTRAQ): Amine-modifying iTRAQ™ reagents multiplex kit (Applied Biosystems, Foster City, Calif., USA) was employed for relative quantitation of purified nascent proteins. Affinity purified eluates were acetone precipitated at −20° C. overnight. Proteins were dissolved in 20 μl of iTRAQ dissolution buffer (Applied Biosystems) and further processed as per the manufacturer's instructions. Briefly, proteins were reduced and the cysteines blocked using the reagents in kit, followed by digestion of the protein samples with provided trypsin solution overnight at 37° C. […] The contents from each of the iTRAQ reagent-labeled sample was combined together and processed for nanoflow liquid chromatography coupled to tandem mass spectrometry (LC-MS/MS).
The AHA-containing nascent proteins enriched by affinity purification were quantitated using isobaric iTRAQ quantitative proteomics reagents. This was done to identify and estimative the relative abundance of nascent proteins enriched in the cytokine-treated samples compared to un-stimulated cells. […] Samples from four independent experiments were individually examined by LC-MS/MS. Peptides identified with 95% confidence were selected for further analysis. The mass spectrometry data was analyzed using Global Proteome Machine (GPM-http://www.thegpm.org/).

[5] = test system: Human THP-1 monocytic cells; experiment: qRT-PCR kinetics of cytokine-induced gene expression of identified candidates
Description: Quantitative real-time PCR (qRT-PCR): RNA was isolated using the Qiagen RNeasy® kit as per the manufacturer's instructions (Rneasy is a registered trademark of Qiagen GmbH, Hilden, Fed. Rep. Germany). Gene expression was subsequently analyzed by qRT-PCR using SuperScript® III Platinum Two-Step qRT-PCR Kit with SYBR Green (SuperScript is a registered trademark of Invitrogen Corp., Carlsbad, Calif., USA), according to the manufacturer's instructions, in the ABI PRISM® 7300 sequence detection system (BI PRISM is a registered trademark of Applera Corp., Foster City, Calif., USA). Fold changes were calculated by the comparative Ct method as taught by Pfaffl (2001) after normalization with 18sRNA.

[6] = test system: AHA-labeled human monocytic THP-1 cells; experiment: ELISA of IL-8 production by AHA-labeled THP-1 cells; conditions: 10 ng/ml, 4 hr
Experimental: as §2, with “The biotin-alkyne reagent thus covalently coupled to the reactive azide group of the AHA-modified proteins was used to subsequently enrich the nascent proteins by affinity purification using Ultralink® Immobilized NeutrAvidin® resin (Ultralink and NeutrAvidin are registered trademarks of Pierce Biotechnology Inc, Rockford, Ill., USA), and the bound proteins were eluted using 6 M guanidinium hydrochloride.” left out

## [N-]=[N+]=NCC[C@H](N)C(=O)O [AHA, L-azidohomoalanine]
[1]
  Cytotoxicity of AHA labeling (LDH release): not cytotoxic
[2]
  Cytotoxicity of AHA labeling (LDH release): cytotoxic
[3]; human monocytic THP-1 cells
  Cytotoxicity of AHA labeling (LDH release): not cytotoxic

## IL-1β: Recombinant human cytokine IL-1β from eBioscience, used as stimulant
[4]
  Fold Change of nascent protein AIFM1: 1.2 fold
  Fold Change of nascent protein ALDOA: 1.5 fold
  Fold Change of nascent protein CALR: 1.0 fold
  Fold Change of nascent protein CAP1: 1.9 fold
  Fold Change of nascent protein CTPS: 1.5 fold
  Fold Change of nascent protein DDX17: 2.2 fold
  Fold Change of nascent protein EIFA3: 1.2 fold
  Fold Change of nascent protein HMGN1: 1.5 fold
  Fold Change of nascent protein HSPA4: 1.1 fold
  Fold Change of nascent protein LCP1: 1.5 fold
  Fold Change of nascent protein PRTN3: 0.8 fold
  Fold Change of nascent protein PSME2: 2.3 fold
  Fold Change of nascent protein PYGL: 1.7 fold
  Fold Change of nascent protein RAB14: 1.2 fold
  Fold Change of nascent protein SEC22B: 1.6 fold
  Fold Change of nascent protein VDAC3: 1.1 fold
[3]; AHA-labeled THP-1 cells, cytokine 10 ng/ml, 4 hr, data not shown
  Cytotoxicity of cytokine treatment (LDH release): not cytotoxic
[5]
  Up-regulation of gene expression of PYGL: 1.5 fold
[5]; p≦0.01
  Up-regulation of gene expression of RAB14 and Eifa3: ≥ 1.5 fold
[6]
  IL-8 production upon IL-1β stimulation compared to cells stimulated with TNF-α: more than 2 fold
[6]; p<0.001
  Production of IL-8: significant

Source: patent publication US20130123201A1, “MODULATION OF CYTOKINE-INDUCED CHRONIC INFLAMMATORY RESPONSES” (UNIVERSITY OF MANITOBA, priority 2010, published 2013)
